≈ marks a conversion by molar mass, not a printed value. Like-named read-outs stand apart in the source and are kept apart here.
Key:
Assay in all cases: microbe, parasite or virus in culture
[1] = test system: C. albicans wild-type; parameters: species or system whole yeast cells; micro-culture broth dilution MIC in YES at 30 C, turbidity, complete growth inhibition; conditions: Candida albicans
Procedure: (§1) Standard YEPD (Yeast Extract, Peptone, Dextrose) ([Sherman, 1990]), YEPD+S (YEPD with 1.2M sorbitol), YES (Yeast Extract, Dextrose and Supplements of Adenine, Histidine, Leucine, Uracil and Lysine) ([Alfa et al., 1993]) and YES+S (YES with 1.2 M sorbitol) ([Ribas et al., 1991]; [Ishiguro et al., 1997]), media were used for determination of MIC values of the tested compounds. A stock solution of 10 mg/ml of each tested compounds was prepared in DMSO and serial dilutions in DMSO were prepared. The final concentration of DMSO was 2% in the YEPD medium. […] The serial dilutions of compounds were dispensed into test tubes with 1 ml of YEPD or YEPD+S to make final concentrations of 200, 100, 50, 25, 12.5, 6.26, 3.125, 1.6, 0.8 and 0.4 μg/ml. The tested yeast strains were previously grown in YEPD, YEPD+S, YES or YES+S agar plates at 30°C for 48 h. Micro-culture assays of large numbers of samples were analyzed as described) ([Martins et al., 2011]). Essentially early log-phase cells were grown in YEPD, YEPD+S, YES or YES+S (1.2 M sorbitol) medium at 30°C, and diluted to cell density of 4 X 10^6 cells/ml in YEPD, YEPD+S, YES or YES+S medium and aliquots of 100 μl were dispensed into each small test tube (3 ml test tube size). Then, another 100 μl of YEPD, YEPD+S, YES or YES+S with the corresponding dilution of each compound at 2X concentration (4% DMSO) was added. The final volume was 200 μl, with the cells diluted to of 2 X 10^6 cells/ml and each compound diluted to 1X final concentration, containing increasing concentrations of antifungal (0, 1, 2, 5, 10, 20, 50, 100 and 200 μg/ml) or an equivalent volume of solvent (2% DMSO). The cells were grown at 30°C in an orbital roller and turbidity was analyzed after 24 and 48 h of incubation. The MIC was determined as the minimal concentration of tested compound that produced complete cell growth inhibition and kept the medium clear. The MIC values were calculated from at least three independent experiments. Next, the first generation of isochromanones (1E-16E) was also screened in YES medium (Table 5) and exerted a weaker antifungal potency than in YEPD medium and also than the second family of isochromanones in YES medium (17E-30E) (Table 6). The strains are partly different from the previously mentioned ones (Tables 5, 6) analyzing two wild type C. albicans strains because they behaved similarly in YEPD. It is remarkable that there was no effect against either the C. albicans, the S. cerevisiae, or the S. pombe wild-type strains, except with 30E.

[2] = test system: T1, S. cerevisiae wild-type CVX12-3A; parameters: species or system whole yeast cells; micro-culture broth dilution MIC in YES at 30 C, turbidity, complete growth inhibition; conditions: Saccharomyces cerevisiae
T1 construct: CVX12-3A
Procedure: as §1

[3] = test system: T2, S. pombe wild-type 972 h-; parameters: species or system whole yeast cells; micro-culture broth dilution MIC in YES at 30 C, turbidity, complete growth inhibition; conditions: Schizosaccharomyces pombe
T2 construct: 972 h-
Procedure: as §1

[4] = test system: Candida albicans C. a.^f (Tables 5, 6); parameters: species or system yeast; micro tube dilution MIC in YES (± 1.2 M sorbitol), complete growth inhibition by turbidity; conditions: 48 h, YES + 1.2 M sorbitol
Procedure: as §1, with “experiments.” for “experiments. Next, the first generation of isochromanones (1E-16E) was also screened in YES medium (Table 5) and exerted a weaker antifungal potency than in YEPD medium and also than the second family of isochromanones in YES medium (17E-30E) (Table 6). The strains are partly different from the previously mentioned ones (Tables 5, 6) analyzing two wild type C. albicans strains because they behaved similarly in YEPD. It is remarkable that there was no effect against either the C. albicans, the S. cerevisiae, or the S. pombe wild-type strains, except with 30E.”

[5] = test system: Candida albicans C. a.^g (Table 6); parameters: species or system yeast; micro tube dilution MIC in YES (± 1.2 M sorbitol), complete growth inhibition by turbidity; conditions: 48 h, YES + 1.2 M sorbitol
Procedure: as §1, with “experiments.” for “experiments. Next, the first generation of isochromanones (1E-16E) was also screened in YES medium (Table 5) and exerted a weaker antifungal potency than in YEPD medium and also than the second family of isochromanones in YES medium (17E-30E) (Table 6). The strains are partly different from the previously mentioned ones (Tables 5, 6) analyzing two wild type C. albicans strains because they behaved similarly in YEPD. It is remarkable that there was no effect against either the C. albicans, the S. cerevisiae, or the S. pombe wild-type strains, except with 30E.”

[6] = test system: T3, Saccharomyces cerevisiae S. c.^d (wild-type CVX12-3A); parameters: species or system yeast; micro tube dilution MIC in YES (± 1.2 M sorbitol), complete growth inhibition by turbidity; conditions: 48 h, YES + 1.2 M sorbitol
T3 construct: CVX12-3A
Procedure: as §1, with “experiments.” for “experiments. Next, the first generation of isochromanones (1E-16E) was also screened in YES medium (Table 5) and exerted a weaker antifungal potency than in YEPD medium and also than the second family of isochromanones in YES medium (17E-30E) (Table 6). The strains are partly different from the previously mentioned ones (Tables 5, 6) analyzing two wild type C. albicans strains because they behaved similarly in YEPD. It is remarkable that there was no effect against either the C. albicans, the S. cerevisiae, or the S. pombe wild-type strains, except with 30E.”

[7] = test system: T4, Schizosaccharomyces pombe S. p.^a (wild-type 972 h-); parameters: species or system yeast; micro tube dilution MIC in YES (± 1.2 M sorbitol), complete growth inhibition by turbidity; conditions: 48 h, YES + 1.2 M sorbitol
T4 construct: 972 h-
Procedure: as §1, with “experiments.” for “experiments. Next, the first generation of isochromanones (1E-16E) was also screened in YES medium (Table 5) and exerted a weaker antifungal potency than in YEPD medium and also than the second family of isochromanones in YES medium (17E-30E) (Table 6). The strains are partly different from the previously mentioned ones (Tables 5, 6) analyzing two wild type C. albicans strains because they behaved similarly in YEPD. It is remarkable that there was no effect against either the C. albicans, the S. cerevisiae, or the S. pombe wild-type strains, except with 30E.”

[8] = test system: C. albicans wild-type; parameters: species or system whole yeast cells; macro tube broth dilution MIC in YEPD at 30 C, visual clearness of medium; conditions: Candida albicans, 48 h, read-out: MIC
Procedure: (§2) Standard YEPD (Yeast Extract, Peptone, Dextrose) ([Sherman, 1990]), YEPD+S (YEPD with 1.2M sorbitol), YES (Yeast Extract, Dextrose and Supplements of Adenine, Histidine, Leucine, Uracil and Lysine) ([Alfa et al., 1993]) and YES+S (YES with 1.2 M sorbitol) ([Ribas et al., 1991]; [Ishiguro et al., 1997]), media were used for determination of MIC values of the tested compounds. A stock solution of 10 mg/ml of each tested compounds was prepared in DMSO and serial dilutions in DMSO were prepared. The final concentration of DMSO was 2% in the YEPD medium. […] The serial dilutions of compounds were dispensed into test tubes with 1 ml of YEPD or YEPD+S to make final concentrations of 200, 100, 50, 25, 12.5, 6.26, 3.125, 1.6, 0.8 and 0.4 μg/ml. The tested yeast strains were previously grown in YEPD, YEPD+S, YES or YES+S agar plates at 30°C for 48 h. For inoculation of YEPD or YEPD+S macro test tubes a suspension of tested fungus was produced with 10^5 cfu/ml (cfu - colony forming unit). 10 μl of suspension was used for inoculation of each tube. After 48 h incubation at 30°C the tubes were checked. The MIC value is the lowest concentration of the tested compound that could inhibit the fungal growth and the medium remained clear. From each tube 10 μl culture was plated on YEPD agar medium to check the contamination. The MIC tests were carried out in three parallels. The screening of the first generation of isochromanones was carried out in YEPD and YEPD+S media (1E-16E). The fungal strains analyzed are: C. albicans wild-type ATCC 26555, SC5314 and ATCC 90028, S. cerevisiae wild-type CVX12-3A and pbr1-1 mutant, and S. pombe wild-type (972h^–), pbr1-8 mutant and pbr1-6 mutant. The bold numbers in Tables 4–6 indicate the more efficient compounds. […] The weak or moderate efficacy against the C. albicans wild-type strains was observed by some substances (3E, 4Z, 5Z, 10E, 15, and 16E). The efficiency toward the S. pombe pbr1-6 mutant strain was the highest inhibitory activity, except 7E, 11E, 12 and 14E. […] As regards the other S. pombe pbr1-8 mutant strain, the antifungal activity of the tested compounds was slightly lower, but the substances with the best activity are partly identical to the best compounds mentioned with pbr1-6, (i.e., 1E, 3E, 4Z, 5Z).

[9] = test system: T1, S. cerevisiae wild-type CVX12-3A; parameters: species or system whole yeast cells; macro tube broth dilution MIC in YEPD at 30 C, visual clearness of medium; conditions: Saccharomyces cerevisiae, 48 h, read-out: MIC
Procedure: as §2

[10] = test system: T2, S. pombe wild-type 972 h-; parameters: species or system whole yeast cells; macro tube broth dilution MIC in YEPD at 30 C, visual clearness of medium; conditions: Schizosaccharomyces pombe, 48 h, read-out: MIC
Procedure: as §2

[11] = test system: C. albicans wild-type; parameters: species or system whole yeast cells; macro tube broth dilution MIC in YEPD at 30 C, visual clearness of medium; conditions: Candida albicans, 48 h, read-out: MIC; remark: listed apart in the source
Procedure: as §2

[12] = test system: C. albicans wild-type; parameters: species or system whole yeast cells; macro tube broth dilution MIC in YEPD at 30 C, visual clearness of medium; conditions: Candida albicans, 48 h, read-out: MIC; remark: listed apart in the source
Procedure: as §2

| Compound | MIC ([1]; YES medium, C. albicans strain f) | MIC ([1]; YES medium, C. albicans strain g) | MIC ([2]; YES medium) | MIC ([3]; YES medium) | MIC [4] | MIC [5] | MIC [6] | MIC [7] | MIC [8] | MIC [9] | MIC [10] | MIC [11] | MIC [12] | MIC ([1]; read-out: MIC) | MIC ([2]; read-out: MIC) | MIC ([3]; read-out: MIC) |
| --- | --- | --- | --- | --- | --- | --- | --- | --- | --- | --- | --- | --- | --- | --- | --- | --- |
| Cc1ccc(/C=C2/C(=O)OCc3ccccc32)cc1 [19E] | > 200 µg/mL | > 200 µg/mL | > 200 µg/mL | > 200 µg/mL | > 200 µg/mL | > 200 µg/mL | > 200 µg/mL | > 200 µg/mL |  |  |  |  |  |  |  |  |
| O=C1OCc2ccccc2/C1=C/c1ccc[nH]1 [5Z] |  |  |  |  |  |  |  |  | 100 µg/mL (≈ 444 µM) | 100 µg/mL (≈ 444 µM) | 25 µg/mL (≈ 111 µM) | 100 µg/mL (≈ 444 µM) | 200 µg/mL (≈ 888 µM) | > 200 µg/mL | > 200 µg/mL | > 200 µg/mL |
| O=C1OCc2ccccc2/C1=C\c1ccc(C(=O)O)cc1 [2E] |  |  |  |  |  |  |  |  | 200 µg/mL (≈ 714 µM) | 100 µg/mL (≈ 357 µM) | 50 µg/mL (≈ 178 µM) | 200 µg/mL (≈ 714 µM) | 200 µg/mL (≈ 714 µM) | > 200 µg/mL | > 200 µg/mL | > 200 µg/mL |
| Cn1cccc1/C=C1\C(=O)OCc2ccccc21 [4Z] |  |  |  |  |  |  |  |  | 25 µg/mL (≈ 104 µM) | 12.5 µg/mL (≈ 52.2 µM) | 25 µg/mL (≈ 104 µM) | 50 µg/mL (≈ 209 µM) | 12.5 µg/mL (≈ 52.2 µM) | > 200 µg/mL | > 200 µg/mL | > 200 µg/mL |
| O=C1OCc2ccccc2/C1=C\c1cccc(O)c1 [16E] |  |  |  |  |  |  |  |  | 200 µg/mL (≈ 793 µM) | 200 µg/mL (≈ 793 µM) | 100 µg/mL (≈ 396 µM) | 200 µg/mL (≈ 793 µM) | 50 µg/mL (≈ 198 µM) | > 200 µg/mL | > 200 µg/mL | > 200 µg/mL |
| Cn1cccc1/C=C1/C(=O)OCc2ccccc21 [4E] |  |  |  |  |  |  |  |  | 200 µg/mL (≈ 836 µM) | 100 µg/mL (≈ 418 µM) | 50 µg/mL (≈ 209 µM) | 200 µg/mL (≈ 836 µM) | 200 µg/mL (≈ 836 µM) | > 200 µg/mL | > 200 µg/mL | > 200 µg/mL |
| O=C1OCc2ccccc2/C1=C/c1ccccc1 [1Z] |  |  |  |  |  |  |  |  | > 200 µg/mL | 100 µg/mL (≈ 423 µM) | 50 µg/mL (≈ 212 µM) | > 200 µg/mL | 200 µg/mL (≈ 846 µM) | > 200 µg/mL | > 200 µg/mL | > 200 µg/mL |
| O=C1OCc2ccccc2/C1=C\c1ccccc1Cl [8E] |  |  |  |  |  |  |  |  | > 200 µg/mL | 100 µg/mL (≈ 369 µM) | 50 µg/mL (≈ 185 µM) | > 200 µg/mL | 200 µg/mL (≈ 739 µM) | > 200 µg/mL | > 200 µg/mL | > 200 µg/mL |

Reference: publication PMC6689975, “Novel Cell Wall Antifungals Reveal a Special Synergistic Activity in pbr1 Mutants Resistant to the Glucan Synthesis Antifungals Papulacandins and Echinocandins” (Frontiers in Microbiology, 2019)
